Measured values taken from ChEMBL document CHEMBL1938230, “6-Position optimization of tricyclic 4-quinolone-based inhibitors of glycogen synthase kinase-3β: discovery of nitrile derivatives with picomolar potency” (Bioorg Med Chem Lett, 2012).

What was measured:
[1] = molecular target: Wee1-like protein kinase (Homo sapiens) (UniProt P30291); assay: Inhibition of human Wee1 in HL-60 cells lysate assessed as reduction of labeling of acyl-phosphate ATP probe at 100 nM; format: cell-free
[2] = molecular target: T1, Serine/threonine-protein kinase TBK1 (Homo sapiens) (UniProt Q9UHD2); assay: Inhibition of human TBK1 in HL-60 cells lysate assessed as reduction of labeling of acyl-phosphate ATP probe at 100 nM; format: cell-free
T1 sequence (whole entry): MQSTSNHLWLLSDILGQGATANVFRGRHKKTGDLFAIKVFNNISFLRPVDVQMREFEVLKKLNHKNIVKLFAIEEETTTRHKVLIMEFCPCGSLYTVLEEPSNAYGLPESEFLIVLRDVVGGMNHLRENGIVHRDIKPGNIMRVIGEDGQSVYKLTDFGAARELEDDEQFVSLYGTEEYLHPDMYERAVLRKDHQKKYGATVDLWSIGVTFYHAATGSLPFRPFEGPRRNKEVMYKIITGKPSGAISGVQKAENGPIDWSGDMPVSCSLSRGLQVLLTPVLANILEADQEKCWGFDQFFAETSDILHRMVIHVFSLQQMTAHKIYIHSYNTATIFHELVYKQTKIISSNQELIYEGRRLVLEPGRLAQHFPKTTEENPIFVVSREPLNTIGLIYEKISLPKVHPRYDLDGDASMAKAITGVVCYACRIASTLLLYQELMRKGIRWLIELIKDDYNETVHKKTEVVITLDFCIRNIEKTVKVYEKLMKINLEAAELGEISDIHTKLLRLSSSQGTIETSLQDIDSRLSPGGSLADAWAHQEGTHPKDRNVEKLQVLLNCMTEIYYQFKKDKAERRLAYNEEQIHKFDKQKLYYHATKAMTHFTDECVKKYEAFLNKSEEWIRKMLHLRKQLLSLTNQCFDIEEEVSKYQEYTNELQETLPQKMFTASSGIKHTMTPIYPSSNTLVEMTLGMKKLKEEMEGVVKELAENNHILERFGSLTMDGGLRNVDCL

HL-60 [3] = assay: Inhibition of human Wnk1/Wnk2/Wnk3 in HL-60 cells lysate assessed as reduction of labeling of acyl-phosphate ATP probe at 100 nM
HL-60 [4] = assay: Inhibition of human TAO1/TAO3 in HL-60 cells lysate assessed as reduction of labeling of acyl-phosphate ATP probe at 100 nM
[5] = molecular target: Interleukin-1 receptor-associated kinase 1 (Homo sapiens) (UniProt P51617); assay: Inhibition of human IRAK1 in HL-60 cells lysate assessed as reduction of labeling of acyl-phosphate ATP probe at 100 nM; format: cell-free
[6] = molecular target: STE20-like serine/threonine-protein kinase SLK (Homo sapiens) (UniProt Q9H2G2); assay: Inhibition of human SLK in HL-60 cells lysate assessed as reduction of labeling of acyl-phosphate ATP probe at 100 nM
[7] = molecular target: Serine/threonine-protein kinase Nek6 (Homo sapiens) (UniProt Q9HC98); assay: Inhibition of human NEK6 in HL-60 cells lysate assessed as reduction of labeling of acyl-phosphate ATP probe at 100 nM; format: cell-free
HL-60 [8] = assay: Inhibition of human MAP3K5/MAP3K6/MAP3K7 in HL-60 cells lysate assessed as reduction of labeling of acyl-phosphate ATP probe at 100 nM
[9] = molecular target: Dual specificity mitogen-activated protein kinase kinase 2 (Homo sapiens) (UniProt P36507); assay: Inhibition of human MAP2K2 in HL-60 cells lysate assessed as reduction of labeling of acyl-phosphate ATP probe at 100 nM; format: cell-free
HL-60 [10] = assay: Inhibition of human Wnk1/Wnk2/Wnk4 in HL-60 cells lysate assessed as reduction of labeling of acyl-phosphate ATP probe at 100 nM
HL-60 [11] = assay: Inhibition of human MST4/YSK1 in HL-60 cells lysate assessed as reduction of labeling of acyl-phosphate ATP probe at 100 nM
[12] = molecular target: T2, Dual specificity mitogen-activated protein kinase kinase 4 (Homo sapiens) (UniProt P45985); assay: Inhibition of human MAP2K4 in HL-60 cells lysate assessed as reduction of labeling of acyl-phosphate ATP probe at 100 nM; format: cell-free
T2 sequence (whole entry): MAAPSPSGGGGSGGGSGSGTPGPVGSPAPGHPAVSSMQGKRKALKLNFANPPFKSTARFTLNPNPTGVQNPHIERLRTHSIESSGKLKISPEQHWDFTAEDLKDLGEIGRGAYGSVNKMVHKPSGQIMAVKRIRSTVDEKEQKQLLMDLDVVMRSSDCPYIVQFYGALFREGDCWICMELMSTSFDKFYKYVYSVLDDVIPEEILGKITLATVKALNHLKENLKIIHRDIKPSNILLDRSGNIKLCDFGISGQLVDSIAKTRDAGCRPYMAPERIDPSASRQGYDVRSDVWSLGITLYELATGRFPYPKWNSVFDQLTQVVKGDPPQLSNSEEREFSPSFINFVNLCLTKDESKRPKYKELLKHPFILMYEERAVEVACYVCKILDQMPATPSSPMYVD

[13] = molecular target: Protein-tyrosine kinase 2-beta (Homo sapiens) (UniProt Q14289); assay: Inhibition of human PYK2 in HL-60 cells lysate assessed as reduction of labeling of acyl-phosphate ATP probe at 100 nM; format: cell-free
HL-60 [14] = assay: Inhibition of human ACK in HL-60 cells lysate assessed as reduction of labeling of acyl-phosphate ATP probe at 100 nM
[15] = molecular target: Tyrosine-protein kinase SYK (Homo sapiens) (UniProt P43405); assay: Inhibition of human SYK in HL-60 cells lysate assessed as reduction of labeling of acyl-phosphate ATP probe at 100 nM; format: cell-free
[16] = molecular target: Serine/threonine-protein kinase/endoribonuclease IRE1 (Homo sapiens) (UniProt O75460); assay: Inhibition of human IRE1 in HL-60 cells lysate assessed as reduction of labeling of acyl-phosphate ATP probe at 100 nM; format: cell-free
HL-60 [17] = assay: Inhibition of human KSR1/KSR2 in HL-60 cells lysate assessed as reduction of labeling of acyl-phosphate ATP probe at 100 nM

Chain of Serine/threonine-protein kinase/endoribonuclease IRE1 (Homo sapiens) (O75460 19-977 limits assumed): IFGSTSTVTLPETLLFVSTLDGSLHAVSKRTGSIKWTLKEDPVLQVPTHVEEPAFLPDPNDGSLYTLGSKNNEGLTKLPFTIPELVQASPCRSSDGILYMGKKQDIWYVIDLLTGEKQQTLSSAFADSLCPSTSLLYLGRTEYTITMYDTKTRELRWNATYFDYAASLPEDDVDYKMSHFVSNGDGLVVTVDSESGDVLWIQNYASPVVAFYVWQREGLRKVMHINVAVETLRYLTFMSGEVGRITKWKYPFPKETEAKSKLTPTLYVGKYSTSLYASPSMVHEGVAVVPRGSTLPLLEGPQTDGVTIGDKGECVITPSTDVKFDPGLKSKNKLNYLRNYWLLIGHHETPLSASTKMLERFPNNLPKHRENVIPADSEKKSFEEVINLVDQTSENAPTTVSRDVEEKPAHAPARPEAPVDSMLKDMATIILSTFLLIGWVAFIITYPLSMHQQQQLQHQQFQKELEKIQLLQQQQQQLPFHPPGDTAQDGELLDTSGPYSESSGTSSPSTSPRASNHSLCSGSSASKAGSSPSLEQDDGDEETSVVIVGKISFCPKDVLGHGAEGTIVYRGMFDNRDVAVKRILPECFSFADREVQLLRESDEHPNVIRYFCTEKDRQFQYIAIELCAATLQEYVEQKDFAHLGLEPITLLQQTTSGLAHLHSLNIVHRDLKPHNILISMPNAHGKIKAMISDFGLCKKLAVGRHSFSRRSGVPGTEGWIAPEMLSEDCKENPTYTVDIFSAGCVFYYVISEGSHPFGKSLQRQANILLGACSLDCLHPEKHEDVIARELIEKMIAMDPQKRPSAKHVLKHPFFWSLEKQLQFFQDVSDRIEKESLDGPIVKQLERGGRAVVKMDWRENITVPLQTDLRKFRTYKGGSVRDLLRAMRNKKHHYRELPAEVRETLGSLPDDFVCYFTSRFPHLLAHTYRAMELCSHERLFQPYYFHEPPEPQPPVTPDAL
Chain of Dual specificity mitogen-activated protein kinase kinase 2 (Homo sapiens) (P36507 whole entry): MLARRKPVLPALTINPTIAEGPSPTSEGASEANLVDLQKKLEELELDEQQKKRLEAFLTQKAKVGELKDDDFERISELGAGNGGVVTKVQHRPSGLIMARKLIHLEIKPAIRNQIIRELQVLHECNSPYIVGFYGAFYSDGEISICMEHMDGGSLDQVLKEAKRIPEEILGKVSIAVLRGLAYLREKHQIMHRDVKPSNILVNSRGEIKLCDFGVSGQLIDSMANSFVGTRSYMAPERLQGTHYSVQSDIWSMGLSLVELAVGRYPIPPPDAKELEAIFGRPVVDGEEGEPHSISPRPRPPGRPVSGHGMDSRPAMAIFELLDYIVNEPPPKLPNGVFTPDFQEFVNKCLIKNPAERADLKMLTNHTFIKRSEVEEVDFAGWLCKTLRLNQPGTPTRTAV
Chain of STE20-like serine/threonine-protein kinase SLK (Homo sapiens) (Q9H2G2 whole entry, looked up): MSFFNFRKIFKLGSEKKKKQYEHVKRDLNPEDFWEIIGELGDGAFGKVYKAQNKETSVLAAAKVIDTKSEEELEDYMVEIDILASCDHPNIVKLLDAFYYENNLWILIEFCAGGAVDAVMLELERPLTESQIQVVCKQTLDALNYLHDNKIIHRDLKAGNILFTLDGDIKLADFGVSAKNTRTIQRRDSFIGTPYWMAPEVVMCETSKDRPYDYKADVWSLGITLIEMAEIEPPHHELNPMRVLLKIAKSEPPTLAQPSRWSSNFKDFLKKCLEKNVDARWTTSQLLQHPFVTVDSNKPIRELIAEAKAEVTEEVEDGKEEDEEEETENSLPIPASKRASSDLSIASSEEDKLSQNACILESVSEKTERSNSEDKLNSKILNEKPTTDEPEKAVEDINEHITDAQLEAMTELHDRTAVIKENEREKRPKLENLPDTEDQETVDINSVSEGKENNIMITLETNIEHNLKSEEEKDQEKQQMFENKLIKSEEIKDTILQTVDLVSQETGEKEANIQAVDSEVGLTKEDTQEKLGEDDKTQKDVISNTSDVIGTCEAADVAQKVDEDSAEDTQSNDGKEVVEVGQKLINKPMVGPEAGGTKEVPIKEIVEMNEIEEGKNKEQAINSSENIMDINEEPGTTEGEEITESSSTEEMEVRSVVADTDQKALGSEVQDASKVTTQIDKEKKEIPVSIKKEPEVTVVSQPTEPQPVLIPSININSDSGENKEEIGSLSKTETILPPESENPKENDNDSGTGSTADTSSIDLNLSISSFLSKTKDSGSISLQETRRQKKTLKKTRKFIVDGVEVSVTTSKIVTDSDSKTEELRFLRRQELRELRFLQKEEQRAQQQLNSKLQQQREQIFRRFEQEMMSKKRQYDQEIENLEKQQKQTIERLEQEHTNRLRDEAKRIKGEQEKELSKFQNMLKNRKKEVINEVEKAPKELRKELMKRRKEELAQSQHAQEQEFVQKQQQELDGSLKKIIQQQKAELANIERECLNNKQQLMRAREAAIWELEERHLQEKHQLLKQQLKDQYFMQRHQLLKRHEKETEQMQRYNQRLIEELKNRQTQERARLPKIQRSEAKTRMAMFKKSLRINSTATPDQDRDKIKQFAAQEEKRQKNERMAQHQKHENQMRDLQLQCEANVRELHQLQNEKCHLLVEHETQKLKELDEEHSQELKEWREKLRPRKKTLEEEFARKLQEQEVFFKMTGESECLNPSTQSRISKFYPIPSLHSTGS
Chain of Wee1-like protein kinase (Homo sapiens) (P30291 whole entry, looked up): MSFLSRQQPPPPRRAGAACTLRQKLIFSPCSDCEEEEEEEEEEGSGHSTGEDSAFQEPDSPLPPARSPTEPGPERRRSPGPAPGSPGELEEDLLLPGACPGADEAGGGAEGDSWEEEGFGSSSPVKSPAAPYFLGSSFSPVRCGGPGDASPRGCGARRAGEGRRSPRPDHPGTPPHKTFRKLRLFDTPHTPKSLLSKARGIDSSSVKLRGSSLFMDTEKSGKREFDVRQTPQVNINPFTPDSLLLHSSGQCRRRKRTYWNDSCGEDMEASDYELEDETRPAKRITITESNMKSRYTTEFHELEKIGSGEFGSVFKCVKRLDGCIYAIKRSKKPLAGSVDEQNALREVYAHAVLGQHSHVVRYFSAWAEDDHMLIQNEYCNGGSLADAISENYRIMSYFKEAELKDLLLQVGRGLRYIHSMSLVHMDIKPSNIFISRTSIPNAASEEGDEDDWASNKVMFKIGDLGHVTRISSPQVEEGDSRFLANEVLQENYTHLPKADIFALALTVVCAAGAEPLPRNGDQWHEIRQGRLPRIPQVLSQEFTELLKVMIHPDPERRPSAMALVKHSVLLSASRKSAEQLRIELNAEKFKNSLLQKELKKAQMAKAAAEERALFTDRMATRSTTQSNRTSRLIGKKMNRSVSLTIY
Chain of Serine/threonine-protein kinase Nek6 (Homo sapiens) (Q9HC98 whole entry): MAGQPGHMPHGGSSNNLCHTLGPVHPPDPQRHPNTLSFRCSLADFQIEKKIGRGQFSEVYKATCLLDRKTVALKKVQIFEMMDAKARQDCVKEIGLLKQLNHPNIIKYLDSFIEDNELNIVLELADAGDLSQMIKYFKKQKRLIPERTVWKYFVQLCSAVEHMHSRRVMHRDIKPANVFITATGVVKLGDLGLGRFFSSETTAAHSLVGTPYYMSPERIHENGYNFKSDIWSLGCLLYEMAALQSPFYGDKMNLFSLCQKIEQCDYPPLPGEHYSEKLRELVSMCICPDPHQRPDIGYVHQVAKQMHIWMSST
Chain of Interleukin-1 receptor-associated kinase 1 (Homo sapiens) (P51617 whole entry, looked up): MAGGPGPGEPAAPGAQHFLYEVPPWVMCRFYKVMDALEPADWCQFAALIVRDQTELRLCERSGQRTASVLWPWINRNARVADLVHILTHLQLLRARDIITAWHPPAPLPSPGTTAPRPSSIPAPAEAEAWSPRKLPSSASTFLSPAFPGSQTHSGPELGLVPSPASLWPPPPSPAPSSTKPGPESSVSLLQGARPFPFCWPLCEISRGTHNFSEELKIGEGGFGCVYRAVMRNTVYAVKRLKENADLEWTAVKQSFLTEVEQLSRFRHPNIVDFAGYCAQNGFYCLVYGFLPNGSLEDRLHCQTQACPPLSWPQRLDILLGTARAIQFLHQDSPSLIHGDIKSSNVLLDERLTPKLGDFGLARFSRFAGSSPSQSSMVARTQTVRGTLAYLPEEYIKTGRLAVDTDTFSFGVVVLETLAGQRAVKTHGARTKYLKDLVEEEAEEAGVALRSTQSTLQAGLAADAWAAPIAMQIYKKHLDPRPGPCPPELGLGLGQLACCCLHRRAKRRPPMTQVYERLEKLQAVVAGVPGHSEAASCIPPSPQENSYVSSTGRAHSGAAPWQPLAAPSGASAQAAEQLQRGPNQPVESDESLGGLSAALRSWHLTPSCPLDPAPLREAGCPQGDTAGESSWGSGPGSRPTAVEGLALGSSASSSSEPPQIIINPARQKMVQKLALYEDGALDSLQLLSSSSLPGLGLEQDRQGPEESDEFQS

C[C@H]1COc2c(NCCCn3cccn3)c(F)c(N)c3c(=O)c(C(=O)O)cn1c23
< 35%: inhibition [1] | inhibition [2] | inhibition at 0.1 µM (HL-60 [3]) | inhibition at 0.1 µM (HL-60 [4]) | inhibition [5] | inhibition [6] | inhibition [7] | inhibition at 0.1 µM (HL-60 [8]) | inhibition [9] | inhibition at 0.1 µM (HL-60 [10]) | inhibition at 0.1 µM (HL-60 [11]) | inhibition [12] | inhibition [13] | inhibition at 0.1 µM (HL-60 [14]) | inhibition [15] | inhibition [16] | inhibition at 0.1 µM (HL-60 [17])

C[C@H]1COc2c(NCCCc3ccccn3)c(F)c(N)c3c(=O)c(C#N)cn1c23
< 35%: inhibition [1] | inhibition [2] | inhibition at 0.1 µM (HL-60 [3]) | inhibition at 0.1 µM (HL-60 [4]) | inhibition [5] | inhibition [6] | inhibition [7] | inhibition at 0.1 µM (HL-60 [8]) | inhibition [9] | inhibition at 0.1 µM (HL-60 [10]) | inhibition at 0.1 µM (HL-60 [11]) | inhibition [12] | inhibition [13] | inhibition at 0.1 µM (HL-60 [14]) | inhibition [15] | inhibition [16] | inhibition at 0.1 µM (HL-60 [17])

C[C@H]1COc2c(NCCCn3cccn3)c(F)c(N)c3c(=O)c(C#N)cn1c23
< 35%: inhibition [1] | inhibition [2] | inhibition at 0.1 µM (HL-60 [3]) | inhibition at 0.1 µM (HL-60 [4]) | inhibition [5] | inhibition [6] | inhibition [7] | inhibition at 0.1 µM (HL-60 [8]) | inhibition [9] | inhibition at 0.1 µM (HL-60 [10]) | inhibition at 0.1 µM (HL-60 [11]) | inhibition [12] | inhibition [13] | inhibition at 0.1 µM (HL-60 [14]) | inhibition [15] | inhibition [16] | inhibition at 0.1 µM (HL-60 [17])

C[C@H]1COc2c(NCCCc3ccccn3)c(F)c(N)c3c(=O)c(C(=O)O)cn1c23
< 35%: inhibition [1] | inhibition [2] | inhibition at 0.1 µM (HL-60 [3]) | inhibition at 0.1 µM (HL-60 [4]) | inhibition [5] | inhibition [6] | inhibition [7] | inhibition at 0.1 µM (HL-60 [8]) | inhibition [9] | inhibition at 0.1 µM (HL-60 [10]) | inhibition at 0.1 µM (HL-60 [11]) | inhibition [12] | inhibition [13] | inhibition at 0.1 µM (HL-60 [14]) | inhibition [15] | inhibition [16] | inhibition at 0.1 µM (HL-60 [17])
